A value given as a limit tells only on which side of the number the result lay.

Data set [1] in a line: Thermal denaturation by CD spectroscopy at 220 nm. Format: physicochemical. The settings on record: 10 mM PBS, pH 7.4, CD 220 nm. From the text: FIG. 2 depicts a plot of the CD spectra ellipticity at 220 nm wavelength of a fluorescently labeled periplasmic binding protein versus temperature. The plot for the protein without ligand is the solid line and the dotted line is the same protein in the presence of its ligand (glucose).
(§1) Combining the preceding mutations provided E149C,A213R,L238S, a protein with glucose binding affinity that is within the physiological range. […] As an illustrative example, the stability of this protein's binding activity was determined by storing solutions of the labeled protein at 25° C. and at 37° C. in a dark environment, and testing aliquots periodically for fluorescent response to glucose. The fluorescence increase for E149C,A213R,L238S upon binding glucose retained 92% of the original fluorescence increase after 3 months at 25° C., and 88% after 3 months at 37° C. Relative stability of the protein's tertiary structure was determined using CD (circular dichroism) spectroscopy of the protein in solution. Spectra were collected in 10 mM PBS, pH 7.4. Each spectrum was the average of 3 accumulations. Thermal denaturation was monitored at 220 nm using a temperature slope of 15° C. per hour over a temperature range of 15-75° C. The Tm (temperature where 50% of the protein was denatured) was 47° C. without glucose and 50° C. in the presence of glucose (see FIG. 2).

Data set [2] is described as follows: Fluorescent response and glucose binding curve of IANBD-labeled GGBP mutants. The following applies: IANBD-labeled protein; for Kd: read-out: glucose affinity; for increase in fluorescence on binding glucose: fluorescent response to 100 mM glucose. As to the method: GGBP protein from the above examples, expressed from E. coli strain Sg13009 following standard protocols (Qiagen) may be further purified. For example, after induction, bacteria were lysed and purified by IMAC using Talon cobalt^2+ resin (Clontech). The purified protein solution was filtered through 100 kDa and 10 kDa cutoff filters (Millipore). […] The yield from the purification was 10 mg/l and the activity of the protein is stable for at least six months. The selected mutants were expressed, purified, and IANBD-labeled to determine their ability to produce a fluorescent response to 100 mM glucose. Mutant E149C,A213R and E149C,N256R produced a 6- and 2-fold increase in fluorescence on binding glucose, respectively. […] Mutant E149C,L238S was identified through an analogous procedure.
as §1

Data set [3] in a line: Stability of binding activity of labeled protein on storage, fluorescent response to glucose. Format: physicochemical. The protocol:
as §1

Data set [4] in a line: Fluorescence assay of NBD-labeled MBP mutants, maltotetraose. The following applies: ligand maltotetraose; for Kd: read-out: Affinity; for QF: ratio of fluorescence intensity with / without ligand. It counts as binding. As to the method:
(§2) For the mutants selected by FACS, a fluorescence assay was used to determine their maltose affinity. The mutants were labeled by fluorophore coupling of N,N′-dimethyl-N-(iodoacetyl)-N′-(7-nitrobenz-2-oxa-1,3-diazol-4-yl)ethylenediamine (IANBD amide, Molecular Probes) to a cysteine site created by mutagenesis at position 95 (Gilardi et al. (1997) Protein Eng. 10(5):479-86). Briefly, purified protein (1-2 mg/ml) was treated with dithiothreitol for 30 min and then a 10-fold molar excess of freshly prepared solution of IANBD was added. The protein and dye were gently mixed at RT for 4 hrs before the unreacted dye was removed by Nap-5 (Amersham) size-exclusion column chromatography. The efficiency of the coupling was determined by absorbance.
(§3) QF is defined as the ratio of fluorescence intensity in the presence of ligand, divided by the ratio of fluorescence intensity in the absence of ligand.

Data set [5] in a line: Fluorescence assay of NBD-labeled MBP mutants, maltotetraitol. The following applies: ligand maltotetraitol; for Kd: read-out: Affinity; for QF: ratio of fluorescence intensity with / without ligand. It counts as binding. As to the method:
as §2, §3

The nature of data set [6]: Fluorescence assay of NBD-labeled MBP mutants, maltose. It counts as binding. The following applies: ligand Maltose; for Kd: read-out: Affinity; for QF: ratio of fluorescence intensity with / without ligand. As to the method:
as §2, §3

A short description of data set [7]: Fluorescence assay of NBD-labeled MBP mutants, maltoside. Format: binding. The following applies: ligand maltoside; ratio of fluorescence intensity with / without ligand. The protocol:
as §2, §3

Data set [8] is described as follows: FRET fluorescent response of E. coli expressing DsRed2-GGBP-acGFP to glucose. The settings on record: 22 mM glucose; excitation at 475 nm; after accounting for volume displacement. Format: cell-based. As to the method: The expression of DsRed2-GGBP-acGFP in E. coli was optimized by first inducing with IPTG and then monitoring the fluorescence produced by the DsRed2 and acGFP proteins. Initially, the protein is expressed for 2-6 hours at 37 C and then transferred to a 25 C shaker for up to 6 days. A 1 ml sample of fermentation broth is removed every 24 hrs during the 25 C expression and examined for fluorescence. […] After accounting for volume displacement, there was a 1-4% increase in DsRed2 emission at 22 mM glucose after excitation at 475 nm due to FRET.

Consider “E149C,A213R,L238S: GGBP mutant combining the preceding mutations”, for which the “Tm (temperature where 50% of the protein was denatured)” value came out at 50 °C in data set [1] (in the presence of glucose) and 47 °C in data set [1] (without glucose). The Kd in data set [2] (binding curve) was determined as 12000 µM. Also, the “increase in fluorescence on binding glucose” value (“increase in fluorescence” below) in data set [2] is recorded as over 6 fold. The “fluorescence increase upon binding glucose retained, of the original fluorescence increase” value in data set [3] (labeled protein solution stored 3 months at 25° C. in the dark) was determined as 92%; in data set [3] (labeled protein solution stored 3 months at 37° C. in the dark), 88%.
In the case of “E149C,L238S: GGBP mutant binding protein identified through an analogous procedure”, the Kd in data set [2] (binding curve) came to 80 µM. Further, the “increase in fluorescence” value in data set [2] was found to be 6 fold.
As for “E149C,N256R: GGBP mutant selected by screening, eliminated from further testing”, the glucose affinity result in data set [2] (binding curve) is on record as “did not reach saturation at 100 mM glucose”. In addition, in data set [2], the “increase in fluorescence” value is on record as 2 fold.
As to MBP(D14V, K15V, D95C)-NBD [SC-2], the results for the Kd in data set [4], in data set [5] and in data set [6] were 40 µM, 11 µM and 220 µM, respectively.
For “E149C,A213R: GGBP mutant binding protein identified by the periplasmic screening assay”, the Kd in data set [2] (binding curve) amounted to 1000 µM. Moreover, the “increase in fluorescence” value in data set [2] was found to be 6 fold.
Consider MBP(D14L,K15R,D95C)-NBD [SC-1], for which the QF in data set [7] came out at 5.5; in data set [4], 2.1; in data set [5] it was 2.8; in data set [6], 3.4. The Kd in data set [4] stood at 3.6 µM; in data set [5], 3.7 µM; in data set [6], 15 µM.
Take DsRed2-GGBP-acGFP: the “increase in DsRed2 emission due to FRET” value in data set [8] was 1-4%.
Turning to “MBP(D95C)-NBD [CONTROL, reference compound]”, the QF in data set [7] came out at 5.5; in data set [4], 5.2; in data set [5], 1.2; in data set [6], 5.3. The values for the Kd in data set [4], in data set [5] and in data set [6] were 0.2 µM, 4.5 µM and 1 µM, respectively.

For the origin of these results see patent publication US20060040327A1, “Methods of screening proteins” (priority 2004, published 2006).
